Results as given in US20100093642A1, “NOVEL POLYPEPTIDES” (priority 2006, published 2010).
No end group written: not given here.

Key:
E. coli (ATCC 25922) = format: cell-based, Escherichia coli
Experimental: (§1) The antibacterial activities of the different peptides were determined by continuous monitoring of bacterial growth with a Bioscreen C microbiology reader (Labsystems Oy, Helsinki, Finland). The test was performed in 100-well flat-bottomed honeycomb plates, in which 50 μl of test fractions were incubated with 50 μl of a suspension of an actively growing culture of bacteria diluted in Mueller Hinton medium to a starting concentration of 3×10^4 cells per ml. […] [NT] 13032) and S. aureus (ATCC 9144), were chosen as test bacteria. […] Polymyxin B (Sigma, St.

Botrytis cinerea 101 = conditions: 48 h
Experimental: (§2) The various derivates of P17 (brominated and non-brominated) were tested for their ability to inhibit fungal growth of the yeast strains Saccaharomyces cerevisiae sp, Candida albicans (ATCC 10231) and Rodotorula sp., and the filamentous strains Botrytis cinerea 101, Penicillium rogveforti, and Fusarium sp. All strains, except C. albicans, were a gift from Prof. A. Tronsmo (The Norwegian University of Life Sciences, Ås, Norway). The fungi were cultivated on potato dextrose agar, supplemented with 2% glucose, at room temperature. Before antifungal testing, the fungi were dissolved in potato dextrose broth (Difco) at half-strength. Cell concentration was determined and adjusted after counting in a Bürker chamber. The filamentous fungi were filtered through a piece of cotton before counting. An aliquot of 50 μl of fungal spores (final concentration 2×10^5 spores per ml) were inoculated in microtiter plates (96 wells) along with 50 μl peptide solution. Peptides, dissolved in distilled water, were tested at final concentrations (two-fold dilutions) ranging from 50 μM to 0.1 μM. Cultures were grown in the dark (without shaking) and with a moist chamber at 25° C. (37° C. for C. albicans). Growth inhibition was determined microscopically after 48 h of incubation. MIC was determined as the lowest concentration of peptide resulting in 50% inhibition of visible growth.

[1] = system: Candida albicans (ATCC 10231); conditions: ATCC 10231, 48 h
Experimental: as §2

Saccharomyces cerevisiae = conditions: 48 h
Experimental: as §2

[2] = system: human breast malignant carcinoma cell line MCF-7; format: cell-based; conditions: 24 h
Experimental: The cytotoxic effects of the peptides on different human tumour cells were measured using the MTT colorimetric assay (Mosmann, 1983). […] Dissolved MIT is converted to an insoluble purple formazan by cleavage of the tetrazolium ring by dehydrogenase enzymes. This water insoluble formazan can be solubilized using isopropanol or other solvents and the dissolved material is measured spectrophotometrically. The absorbance was measured as a function of concentration of converted dye. The conversion of the soluble dye to the insoluble purple formazan is utilized in assays for measurement of cell proliferation. […] We used this assay to measure the degree of cell death caused by the peptides. MCF-7 was maintained in EMEM, A2058 in DMEM and […]-29 in RPMI-1640 medium supplemented with 10% heat inactivated […] and 1% L-glutamine-L-alanine in a humidified atmosphere of 5% CO2 at 37° C. The human embryonic fibroblast cell line, MRC-5 (which is normal fibroblasts), was cultured as a monolayer in MEM medium, under the same conditions as described for the tumour cell lines. Cells to be used in the assay were grown to a minimum of 75% confluency, trypsinated and split to single cell suspension, counted and centrifuged at 1500 rpm for 10 min. The cell pellet was resuspended to a concentration of 2×10^5 cells/ml (HT-29) or 1×10^5 (MRC-5, MCF7 and A2058) in DMEM without FBS and L-glutamine-L-alanine (assay-medium). All cell lines were routinely tested for mycoplasma infection using a PCR-based mycoplasma detection kit (MycoSensor PCR Assay Kit, Stratagene), following the supplier's instructions. All cell lines were mycoplasma free. The cytotoxicity was measured using the MTT method (Mosmann, 1983), with minor modifications. Different human tumour cells (1-2×10^5) were applied in 96-well culture plates in a volume of 100 μl DMEM medium and incubated at 37° C. for 24 hours. The medium was removed and the cells were treated with 100 μl of peptide solution (concentrations ranging from 0 to 200 μg/ml), diluted in a) RPMI-1640 medium supplemented with 5% heat inactivated FBS, or b) RPMI-1640 medium without FBS. The plates were incubated at 37° C. for 24 hours. Cells treated with Triton X-100 (1%) was used as positive control (100% killing) whereas cells plus medium only were used as negative control. […] A volume of 70 μl of the supernatant was then removed and […] (0.04 M HCl in isopropanol) added to each well. The plate was placed on a shaker for 1 hour at room temperature and read spectrophotometrically at 590 nm in a microtiter plate reader (DTX880 Multimode Detector, Beckman Coulter).

[3] = system: C. glutamicum (ATCC 13032); format: cell-based, Corynebacterium glutamicum
Experimental: as §1

S. aureus (ATCC 9144) = format: cell-based, Staphylococcus aureus; conditions: ATCC 9144
Experimental: as §1

TNF-α = experiment: Inhibition of LPS induced TNF-α response in THP-1 cells (ELISA); format: cell-based, human; conditions: Ratio TC50 (THP-1)/EC50 (anti-TNFα)
Experimental: FIG. 12. Antiinnflammatory response measured as inhibition of tumor necrosis factor alpha (TNF-α) response in THP-1 cells after stimulation with LPS. THP-1 cells (1×10^6 cells/ml) were treated with P17 derivates in different concentrations for 1 hour, and subsequently stimulated with 100 ng/ml LPS for 6 hours. LPS was used as control for induction of TNF-α. (set as 100% response), RPMI media was used as negative (non-stimulated) control, and cycloheximide (Chx, 10 μg/ml) was used as a an inhibitory control for LPS induced TNF-α. The data presented are the average of two parallells. (A) The effect of the peptides P17 HC and P17 HC (1-20). (B) The effect of the peptides P17 HC (11-20) and P17 HC-Br.
The THP-1 cells (ATCC, TIB-202) were maintained in suspension in RPMI-1640 medium with 25 mM HEPES and 2 mM Glutamax I supplemented with 10% FBS (growth medium) in a humidified atmosphere of 5% CO2 at 37° C. Cells to be used in the assay were grown to a density of 8×10^5-1×10^6 cells/ml. The cells were centrifuged for 7 min at 200 g and the cell pellet was resuspended to a concentration of 10^6 cells/ml in RPMI-1640 with 10% FBS.
To allow examination of antiinflammatory effects of the peptides on basal and stimulated cytokine production, peptide-treated macrophages were cultured in the presence of LPS and the levels of TNF-α were measured. The primary screening was based on a mammalian cell line; the human THP-1 line. This line is of monocyte/macrophage origin and responds to various stimuli by increased production of cytokines, like TNF-α and the IL-1β, (Wang et al. 2000). To induce monocyte-macrophage differentiation, THP-1 cells were cultured in 96-well culture plates (10^6 cells/well) in a volume of 100 μl RPMI 1640 medium, containing 50 ng/ml PMA (which is known to induce the maturation of monocytes) and incubated in a humidified atmosphere of 5% CO2, at 37° C. for 48 hours. The medium was then removed and the cells were washed with PBS, added 100 μl fresh medium (without PMA) and incubated for another 24 hours. Medium was removed and the adherent macrophages were treated with 100 μl of peptide solution (concentrations ranging from 0 to 400 μg/ml), diluted in RPMI-1640 medium with 25 mM HEPES and 2 mM Glutamax I, but without […] (assay medium). After incubation at 37° C. for 1 hour, the cells were added LPS (0.1 μg/ml) and further incubated for 6 hours. […] TNF-α concentrations were quantified by the Human TNF-α ELISA MAX kit (BioLegend), according to the manufacturer's instructions. Duplicate readings for each standard, control and sample were recorded. The average absorbance for each set of standards, controls, and samples was calculated using a standard curve. Concentrations were determined by extrapolation on the standard curve.

Pseudomonas aeruginosa = format: cell-based
Experimental: as §1

SHAVKSGIHA [P17 HC (11-20)]
103 µM: IC50 [2]
>100 µM: Minimal inhibitory concentration, E. coli (E. coli (ATCC 25922)) | Minimal inhibitory concentration (MIC), Botrytis cinerea (Botrytis cinerea 101) | Minimal inhibitory concentration (MIC), Candida albicans [1] | Minimal inhibitory concentration (MIC), Saccharomyces cerevisiae (Saccharomyces cerevisiae) | Minimal inhibitory concentration, C. glutamicum [3] | Minimal inhibitory concentration, S. aureus (S. aureus (ATCC 9144)) | Minimal inhibitory concentration, P. aeruginosa (Pseudomonas aeruginosa)
>2.2: Therapeutic index TC50/EC50 (TNF-α)
